Test results from article PMC8876603, “New Blood Coagulation Factor XIIa Inhibitors: Molecular Modeling, Synthesis, and Experimental Confirmation” (Molecules, 2022).
Where “and” joins values, the source holds several entries; their conditions need not be identical. Equal values may be shown once. Read-outs that look alike come from different tables or passages of the source.

Legend:
factor XIIa [1] = target: T1, factor XIIa (Homo sapiens, UniProt P00748); conditions: read-out: IC50 factor XIIa (aminotriazole-based inhibitors); cited from earlier work
T1 sequence (P00748 373-615 limits assumed, other chains not shown): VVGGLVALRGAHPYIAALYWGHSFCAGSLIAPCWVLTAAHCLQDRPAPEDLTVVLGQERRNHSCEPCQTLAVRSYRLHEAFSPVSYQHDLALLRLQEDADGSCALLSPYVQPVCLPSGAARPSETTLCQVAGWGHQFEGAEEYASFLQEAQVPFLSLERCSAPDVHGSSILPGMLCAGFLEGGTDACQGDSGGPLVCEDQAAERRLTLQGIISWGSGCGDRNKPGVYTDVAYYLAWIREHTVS

factor XIa = factor XIa (Homo sapiens, UniProt P03951); assay: Inhibition of factor XIa (off-target selectivity testing); format: biochemical; conditions: >30 = no activity at 30 µM, IC50 not measured
factor XIa, sequence (P03951 388-625 limits assumed): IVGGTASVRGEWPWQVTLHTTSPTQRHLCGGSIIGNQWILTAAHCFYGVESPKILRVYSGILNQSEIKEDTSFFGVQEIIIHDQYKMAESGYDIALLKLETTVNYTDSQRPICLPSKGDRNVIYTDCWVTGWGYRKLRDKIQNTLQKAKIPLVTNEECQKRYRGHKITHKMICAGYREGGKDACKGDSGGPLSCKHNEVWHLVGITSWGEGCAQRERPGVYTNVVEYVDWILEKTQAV
factor XIa, sequence (P03951 19-387 partner limits assumed): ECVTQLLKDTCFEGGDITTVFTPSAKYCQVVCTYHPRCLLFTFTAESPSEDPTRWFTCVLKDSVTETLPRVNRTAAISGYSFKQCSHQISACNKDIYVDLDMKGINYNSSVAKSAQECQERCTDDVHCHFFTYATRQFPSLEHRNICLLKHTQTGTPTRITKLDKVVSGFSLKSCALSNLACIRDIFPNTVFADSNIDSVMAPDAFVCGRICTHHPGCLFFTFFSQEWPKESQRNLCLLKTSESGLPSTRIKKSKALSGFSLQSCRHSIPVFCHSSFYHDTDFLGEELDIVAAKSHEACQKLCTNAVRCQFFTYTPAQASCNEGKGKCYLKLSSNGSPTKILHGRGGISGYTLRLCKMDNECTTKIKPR
Protocol: At the first stage, virtual screening based on docking was carried out by the SOL program and the subsequent calculation of the enthalpy of protein–ligand binding by the PM7+COSMO method for the focused library of compounds selected from the database of druglike substances of the Department of Organic Chemistry of the Voronezh State University (VSU). This library consisted of 59 compounds, which were all previously tested against coagulation factors Xa and XIa. Among them, there were a few confirmed inhibitors of these proteins with micromolar activity. The presence of inhibition data for these off-targets allowed us to use selectivity data after the screening phase and better understand the quality of the identified hit series. Screening and testing the selected compounds from the focused library also helped clarify the threshold values of the scoring function of the SOL program, the binding enthalpy and, accordingly, adjust the screening process for further iterations.Virtual screening with the SOL program was carried out for 326 three-dimensional molecules. The original base of 59 ligands was expanded taking into account a few protomers, isomers, and conformers of these molecules. At the first stage, the selection of compounds was carried out based on the SOL scoring function. […] Note that the SOL scoring value for the docking of the original ligand (PDB ID 6B74) was −5.19 kcal/mol. Thus, the selection criterion covered a wider range of scoring values.
(§1) Figure 5 Structures of four identified inhibitors of the coagulation factor XIIa. IC50 values are shown for three coagulation factors: Xa, XIa, and XIIa. […] So, they are marked with ‘>30’ in a column with activity values. TEXT PRINTED IN THE PICTURE: 30901: IC50, μM: XIIa 19.67±1.31; IC50, μM: XIa > 30.00; IC50, μM: Xa 12.40±0.38 | 41453: IC50, μM: XIIa 25.88±1.77; IC50, μM: XIa > 30.00; IC50, μM: Xa > 30.00 | 225006: IC50, μM: XIIa 7.85±0.34; IC50, μM: XIa > 30.00; IC50, μM: Xa > 30.00 | 225738: IC50, μM: XIIa 12.95±0.32; IC50, μM: XIa > 30.00; IC50, μM: Xa > 30.00

factor XIIa [2] = target: T1, factor XIIa; assay: Inhibition of factor XIIa: kinetics of hydrolysis of chromogenic substrate S2302; format: biochemical; conditions: for IC50: substrate S2302, competitive inhibitor fit; for inhibition at 30 µM: read-out: Inhibition Activity at 30 µM, %; for Selectivity for factor XIIa over coagulation factors Xa and XIa: from IC50 values of Figure 5
Protocol: (§2) The inhibition of factor XIIa by the synthesized compounds was studied by measuring the kinetics of hydrolysis of specific substrate S2302 (Chromogenics, Italy) in the presence of these compounds. A buffer containing 140 mM NaCl, 20 mM HEPES and 0.1% PEG 6000 (pH 7.4) was placed in the wells of a 96-well plate, followed by the addition of factor XIIa (final concentration 5 nM), solution of the test compound in DMSO (final concentration 30 μM), and substrate S2302 (Chromogenics, Italy) (final concentration 200 μM). The DMSO content in the well was no more than 2%. The kinetics of the formation of pNa were measured using a THERMOmax Microplate Reader (Molecular Devices Corporation, USA) by the absorption of light with a wavelength of 405 nm. The initial rate of substrate degradation was determined from the initial slope of the pNa formation curve. The rate of substrate degradation by the enzyme in the presence of the inhibitor was expressed as a percentage relative to the rate of substrate degradation in the absence of the inhibitor. The data obtained were processed using the GraphPad Prism and OriginPro 8 software. Ratio of specific substrate cleavage (S2302 for factor XIIa and S2765 for factor Xa) rate in presence of different inhibitor concentrations to these and the cleavage rate without inhibitor were determined to calculate IC50 values. Received curves (see Figures S18–S22) were approximated with the assumption that these were competitive inhibitors.

factor Xa = factor Xa (Homo sapiens, UniProt P00742); assay: Inhibition of factor Xa: cleavage rate of specific substrate S2765; format: biochemical; conditions: >30 = no activity at 30 µM, IC50 not measured
factor Xa, sequence (P00742 235-488 limits assumed): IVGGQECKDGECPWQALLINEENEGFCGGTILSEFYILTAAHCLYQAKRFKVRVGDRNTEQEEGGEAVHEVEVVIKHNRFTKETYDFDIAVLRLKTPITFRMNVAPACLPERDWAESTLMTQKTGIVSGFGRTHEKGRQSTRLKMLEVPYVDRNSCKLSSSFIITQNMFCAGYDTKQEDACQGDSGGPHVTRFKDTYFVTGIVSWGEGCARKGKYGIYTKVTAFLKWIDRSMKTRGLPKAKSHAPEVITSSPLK
factor Xa, sequence (P00742 41-179 partner limits assumed): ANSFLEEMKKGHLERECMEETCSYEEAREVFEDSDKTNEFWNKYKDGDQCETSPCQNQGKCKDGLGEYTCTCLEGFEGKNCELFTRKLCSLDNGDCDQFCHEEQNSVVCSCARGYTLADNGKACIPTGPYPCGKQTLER
Protocol: as §2, §1

[3] = % of enzyme inhibition at 30 µM, averaged over three measurements

Structure (SMILES): Nc1nc(-c2cnc3ccccc3n2)nn1C(=O)c1cccc2ccccc12 [aminotriazole_39b]
- IC50 (factor XIIa [1]): 0.007 µM

Structure (SMILES): COc1cc2c3c(c1)C1(C(=O)N3C(C)(C)CC2C)C(C#N)=C(N)Oc2c1c(=O)oc1ccccc21 (centres unmarked) [compound 30901, 2-amino-8’-methoxy-4’,4’,6’-trimethyl-2’,5-dioxo-5’,6’-dihydro-2’H,4’H,5H-spiro[pyrano[3,2-c]chromene-4,1’-pyrrolo[3,2,1-ij]quinoline]-3-carbonitrile]
- IC50 (factor XIa): > 30 µM
- IC50 (factor XIIa [2]): 19.7 ± 1.31 µM
- IC50 (factor Xa): 12.4 ± 0.38 µM

Structure (SMILES): CCc1cc2c3c(c1)C1(C(=O)N3C(C)(C)CC2C)C(C#N)=C(N)Oc2c1c(=O)[nH]c1ccccc21 (centres unmarked) [compound 38292, 2-Amino-8’-ethyl-4’,4’,6’-trimethyl-2’,5-dioxo-5,5’,6,6’-tetrahydro-4’H-spiro[pyrano[3,2-c]quinoline-4,1’-pyrrolo[3,2,1-ij]quinoline]-3-carbonitrile]
- inhibition at 30 µM (factor XIIa [2]; [3]): 10%

Structure (SMILES): COc1ccc(C2C(C#N)=C(N)Oc3c2c(=O)[nH]c2ccccc32)cc1OC (centres unmarked) [compound 38756, 2-Amino-4-(3,4-dimethoxyphenyl)-5-oxo-5,6-dihydro-4H-pyrano[3,2-c]quinoline-3-carbonitrile]
- inhibition at 30 µM (factor XIIa [2]; [3]): 15%

Structure (SMILES): CC1(C)CC2(CCCCC2)N2C(=O)C3(NCCc4c3[nH]c3ccccc43)c3cccc1c32 (stereo not drawn) [compound 41453, 6’,6’-Dimethyl-2,3,4,5’,6’,9-hexahydrodispiro[β-carboline-1,1’-pyrrolo[3,2,1-ij]quinoline-4’,1’’-cyclohexan]-2’-one]
- IC50 (factor XIa): > 30 µM
- Selectivity for factor XIIa over coagulation factors Xa and XIa (factor XIIa [2]): questionable
- IC50 (factor XIIa [2]): ~26 µM and 25.9 µM
- IC50 (factor Xa): > 30 µM

Structure (SMILES): CC1CCc2nc3oc(-c4ccccc4)cc3c(N)c2C1 (centres unmarked) [compound 224530, 6-Methyl-2-phenyl-5,6,7,8-tetrahydrofuro[2,3-b]quinolin-4-amine]
- inhibition at 30 µM (factor XIIa [2]; [3]): 0%

Structure (SMILES): Nc1c2c(nc3oc(-c4ccccc4Cl)cc13)CCCC2=O [compound 224533, 4-Amino-2-(2-chlorophenyl)-7,8-dihydrofuro[2,3-b]quinolin-5(6H)-one]
- inhibition at 30 µM (factor XIIa [2]): 2%

Structure (SMILES): COc1ccc(C(=O)c2cc3cc4c(cc3oc2=O)N(C)C(C)(C)CC4C)cc1 (centres unmarked) [compound 224870, 3-(4-Methoxybenzoyl)-6,8,8,9-tetramethyl-6,7,8,9-tetrahydro-2H-pyrano[3,2-g]quinolin-2-one]
- inhibition at 30 µM (factor XIIa [2]; [3]): 0%

Structure (SMILES): CC1CC(C)(C)N(C)c2cc3oc(=O)c(-c4cc(=O)[nH]c(N5CCOCC5)n4)cc3cc21 (centres unmarked) [compound 225006, 6,8,8,9-Tetramethyl-3-(2-morpholin-4-yl-6-oxo-1,6-dihydropyrimidin-4-yl)-6,7,8,9-tetrahydro-2H-pyrano[3,2-g]quinolin-2-one]
- IC50 (factor XIa): > 30 µM
- inhibition at 30 µM (factor XIIa [2]; [3]): > 50%
- Selectivity for factor XIIa over coagulation factors Xa and XIa (factor XIIa [2]): selectively inhibit
- IC50 (factor XIIa [2]): 7.9 µM and 7.85 µM
- IC50 (factor Xa): > 30 µM

Structure (SMILES): COc1cc2c3c(c1)C(=NNC(=N)N)C(=O)N3C(C)(C)C=C2C [compound 225635, 2-(8-Methoxy-4,4,6-trimethyl-2-oxo-4H-pyrrolo[3,2,1-ij]quinolin-1(2H)-ylidene)hydrazinecarboximidamide]
- inhibition at 30 µM (factor XIIa [2]; [3]): 0%

Structure (SMILES): COc1cc2c3c(c1)C(=NNC(=N)N)C(=O)N3C(C)(C)C=C2CN1CCN(c2ccc(F)cc2)CC1 [compound 225638, 2-[6-{[4-(4-Fluorophenyl)piperazin-1-yl]methyl}-8-methoxy-4,4-dimethyl-2-oxo-4H-pyrrolo[3,2,1-ij]quinolin-1(2H)-ylidene]hydrazinecarboximidamide]
- inhibition at 30 µM (factor XIIa [2]; [3]): 27%

Structure (SMILES): COC(=O)c1c(C)[nH]c(-c2ccccc2)c1C1C(=O)N2c3c(cc(OC)cc31)C(C)=CC2(C)C (centres unmarked) [compound 225738, methyl 4-(8-methoxy-4,4,6-trimethyl-2-oxo-1,2-dihydro-4H-pyrrolo[3,2,1-ij]quinolin-1-yl)-2-methyl-5-phenyl-1H-pyrrole-3-carboxylate]
- IC50 (factor XIa): > 30 µM
- inhibition at 30 µM (factor XIIa [2]; [3]): > 50%
- Selectivity for factor XIIa over coagulation factors Xa and XIa (factor XIIa [2]): selectively inhibit
- IC50 (factor XIIa [2]): 13 ± 0.32 µM
- IC50 (factor Xa): > 30 µM

Structure (SMILES): COc1cc2c3c(c1)/C(=N/OC(=O)c1ccccc1)C(=O)N3C(C)(C)C=C2C [compound 225746, 8-Methoxy-4,4,6-trimethyl-4H-pyrrolo[3,2,1-ij]quinoline-1,2-dione1-(O-benzoyloxime)]
- inhibition at 30 µM (factor XIIa [2]; [3]): 0%
